Test results published in EP4806912A1, “DUAL AGONIST COMPOUND” (Chengdu Aoda Biotechnology Co., Ltd, priority 2023, dated 2025).
pEC50: −log10 of the molar value.

What was measured:
GCG-R = biological target: T1, GCG-R (Homo sapiens, UniProt P47871); test: GCG activity test (cAMP, chemiluminescence, CHO-K1 cell line stably expressing GCG-R); type: cell-based; details: relative luminescence units, read-out: GCG activity [EC50(nmol)]
T1 construct: expressed in transfected cells; host or cells: CHO-K1
Description: (§1) Upon stimulation by a specific agonist, GCG-R activates the intracellular adenylate cyclase signaling pathway, resulting in an increase in cAMP levels and ultimately leading to insulin production and secretion. A cell line stably transfected with GCG-R was stimulated with test compounds, thereby rapidly increasing intracellular cAMP levels. The relative luminescence units (RLU) of cells stimulated at various concentrations were measured by a chemiluminescence method, and the EC50 value of the agonist was calculated accordingly. This activity assay method is currently a commonly used method for evaluating GCG receptor agonist activity both domestically and internationally.
A CHO-K1 cell line stably expressing GCG-R was used. The stable cells were stimulated with agonists at different concentrations, and the relative luminescence units after stimulation at each concentration were measured to calculate the EC50 value of the agonist.

GLP-1R = biological target: T2, GLP-1R (Homo sapiens, UniProt P43220); test: GLP-1 activity test (cAMP, chemiluminescence, CHO-K1 cell line stably expressing GLP-1R); type: cell-based; details: relative luminescence units, read-out: GLP-1 activity [EC50(pmol)]
T2 construct: expressed in transfected cells; host or cells: CHO-K1
Description: as §1, with “GLP-1R” for “GCG-R”, “test” for “assay”, “GLP-1” for “GCG”
A CHO-K1 cell line stably expressing GLP-1R was used. The stable cells were stimulated with agonists at different concentrations, and the relative luminescence units after stimulation at each concentration were measured to calculate the EC50 value of the agonist.

[1] = Preliminary pharmacokinetic evaluation in cynomolgus monkeys (plasma, LC-MS); type: in vivo; details: for half-life: cynomolgus monkey, male cynomolgus monkeys, subcutaneously (SC), 0.2 mg/kg, plasma; for half-lives: cynomolgus monkeys, administered subcutaneously
Description: Among the above compounds, the principle of modification for long-acting was essentially the same.
The test animals were male cynomolgus monkeys. Two animals were used for each compound. The compounds were administered subcutaneously at a dose of 0.2 mg/kg. Blood samples were collected via intravenous sampling prior to administration (0 h) and at 1 h, 2 h, 3 h, 4 h, 8 h, 12 h, 18 h, 24 h, 48 h, 96 h, 144 h, and 168 h after administration. Plasma samples were obtained by centrifugation. The plasma concentrations of the compounds were respectively determined by liquid chromatography - mass spectrometry (LC-MS).

T2 sequence (P43220 24-463, species assumed): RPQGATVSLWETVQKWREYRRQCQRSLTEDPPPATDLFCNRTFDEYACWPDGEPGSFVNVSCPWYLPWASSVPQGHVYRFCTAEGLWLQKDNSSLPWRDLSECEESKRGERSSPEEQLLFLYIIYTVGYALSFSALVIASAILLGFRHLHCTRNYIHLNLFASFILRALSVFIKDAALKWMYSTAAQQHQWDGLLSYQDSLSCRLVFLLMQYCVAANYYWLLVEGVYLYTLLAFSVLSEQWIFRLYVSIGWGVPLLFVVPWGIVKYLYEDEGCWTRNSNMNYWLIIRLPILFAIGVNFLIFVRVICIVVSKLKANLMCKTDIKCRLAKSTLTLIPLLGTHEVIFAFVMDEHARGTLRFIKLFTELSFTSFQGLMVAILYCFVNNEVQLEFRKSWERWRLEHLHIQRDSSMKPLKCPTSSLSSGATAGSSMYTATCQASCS
T1 sequence (P47871 26-477, species assumed): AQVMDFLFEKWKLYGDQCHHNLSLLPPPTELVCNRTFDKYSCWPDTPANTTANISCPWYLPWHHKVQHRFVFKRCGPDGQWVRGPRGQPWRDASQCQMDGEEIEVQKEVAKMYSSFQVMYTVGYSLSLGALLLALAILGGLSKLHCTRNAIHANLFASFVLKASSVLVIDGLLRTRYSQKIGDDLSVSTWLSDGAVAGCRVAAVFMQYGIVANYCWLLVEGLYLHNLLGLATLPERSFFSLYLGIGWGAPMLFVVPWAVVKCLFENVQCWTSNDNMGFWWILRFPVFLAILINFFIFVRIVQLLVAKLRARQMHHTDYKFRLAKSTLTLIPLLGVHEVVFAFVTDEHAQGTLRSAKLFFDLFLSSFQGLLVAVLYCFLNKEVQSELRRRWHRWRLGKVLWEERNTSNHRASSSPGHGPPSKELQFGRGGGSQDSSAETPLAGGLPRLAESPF

Structure (SMILES): CC(C)C[C@H](NC(=O)[C@H](CC(C)C)NC(=O)[C@H](Cc1c[nH]c2ccccc12)NC(=O)[C@H](CCC(=O)O)NC(=O)[C@@H](NC(=O)[C@H](Cc1ccccc1)NC(=O)[C@H](CCC(=O)O)NC(=O)[C@H](CCCCNC(=O)COCCOCCOCCOCCOCCNC(=O)CCC[C@H](NC(=O)CCCCCCCCCCCCCCCCCCC(=O)O)C(=O)O)NC(=O)[C@H](C)NC(=O)[C@H](CCCCN)NC(=O)[C@H](CCCCN)NC(=O)[C@H](CCC(=O)O)NC(=O)[C@H](CC(=O)O)NC(=O)[C@H](CC(C)C)NC(=O)[C@H](Cc1ccc(O)cc1)NC(=O)[C@H](CCCCN)NC(=O)[C@H](CO)NC(=O)[C@H](Cc1ccc(O)cc1)NC(=O)[C@H](CC(=O)O)NC(=O)[C@H](CO)NC(=O)[C@@H](NC(=O)C(C)(Cc1ccccc1)NC(=O)[C@@H](NC(=O)CNC(=O)[C@H](CCC(N)=O)NC(=O)C(C)(C)NC(=O)[C@@H](N)Cc1c[nH]cn1)[C@@H](C)O)[C@@H](C)O)C(C)C)C(=O)N[C@@H](CCC(=O)O)C(=O)NCCCCC(=O)N1CCC[C@H]1C(=O)N[C@@H](CO)C(=O)N[C@@H](CO)C(=O)NCC(=O)N[C@@H](C)C(=O)N1CCC[C@H]1C(=O)N1CCC[C@H]1C(=O)N1CCC[C@H]1C(=O)N[C@@H](CO)C(N)=O (some centres unmarked) [Compound 6]
- pEC50 (GCG-R): 8.68
- pEC50 (GLP-1R): 10.09
- half-life [1]: 125 h
- half-lives [1]: greater than 100 hours

Structure (SMILES): CC(C)C[C@H](NC(=O)[C@H](CC(C)C)NC(=O)[C@H](Cc1c[nH]c2ccccc12)NC(=O)[C@H](CCC(=O)O)NC(=O)[C@@H](NC(=O)[C@H](Cc1ccccc1)NC(=O)[C@H](CCC(=O)O)NC(=O)[C@H](CCCCNC(=O)COCCOCCOCCOCCOCCNC(=O)CCC[C@H](NC(=O)CCCCCCCCCCCCCCCCCCC(=O)O)C(=O)O)NC(=O)[C@H](C)NC(=O)[C@H](CCCCN)NC(=O)[C@H](CCCCN)NC(=O)[C@H](CCC(=O)O)NC(=O)[C@H](CC(=O)O)NC(=O)[C@H](CC(C)C)NC(=O)[C@H](Cc1ccc(O)cc1)NC(=O)[C@H](CCCCN)NC(=O)[C@H](CO)NC(=O)[C@H](Cc1ccc(O)cc1)NC(=O)[C@H](CC(=O)O)NC(=O)[C@H](CO)NC(=O)[C@@H](NC(=O)C(C)(Cc1ccccc1F)NC(=O)[C@@H](NC(=O)CNC(=O)[C@H](CCC(N)=O)NC(=O)C(C)(C)NC(=O)[C@@H](N)Cc1c[nH]cn1)[C@@H](C)O)[C@@H](C)O)C(C)C)C(=O)N[C@@H](CCC(=O)O)C(=O)NCCCCC(=O)N1CCC[C@H]1C(=O)N[C@@H](CO)C(=O)N[C@@H](CO)C(=O)NCC(=O)N[C@@H](C)C(=O)N1CCC[C@H]1C(=O)N1CCC[C@H]1C(=O)N1CCC[C@H]1C(=O)N[C@@H](CO)C(N)=O (some centres unmarked) [Compound 10]
- pEC50 (GCG-R): 8.92
- pEC50 (GLP-1R): 10.12
- half-life [1]: 136 h
- half-lives [1]: greater than 100 hours
